# Test results: patent US20050197292A1, “Compositions and methods for treating T-cell mediated pathological conditions” (priority 2004, published 2005)
# Tests used:
# CD8 T cells = test: TCR-CD28 co-stimulated proliferation, [3H] thymidine incorporation, CD8 T cells; type: cell-based, human; conditions: anti-CD3 150 ng/ml and anti-CD28 1 μg/ml coated, 72 h
# Experimental: (§1) 96-well plates were coated with the anti-CD3 and anti-CD28 mAb at 150 ng/ml and 1 μg/ml respectively in PBS overnight at 4° C., aspirated and coated with the control protein, CG57008-15, CG57008-12 or CG57008-14 for 4 hr at 37° C. Wells were aspirated and 150 μl of purified Human CD4+, CD8+ or polarized TH2 cells from healthy blood donors, or purified CD4+ or CD8+ T cells from B6 mice at a concentration of 0.7×10^6 cells/ml were added and cultured for 72 h at 37° C. Proliferation was measured by [^3H] thymidine incorporation by pulsing cells with 0.5 μCi of [^3H] thymidine 8 hr prior to harvesting. Cytokines were measured by ELISA using cells harvested at 72 hr.
# CD4 T cells = test: TCR-CD28 co-stimulated proliferation, [3H] thymidine incorporation, CD4 T cells; type: cell-based, human; conditions: anti-CD3 150 ng/ml and anti-CD28 1 μg/ml coated, 72 h
# Experimental: as §1
substance,measurement,setting,value
"CG201877-02 (ECD/FC): Tim1 - Mus musculus; Mature Igkappa, ECD, Fc, V5, His",proliferation of CD8 T cells,CD8 T cells,significantly inhibited
same,proliferation of CD4 T cells,CD4 T cells,significantly inhibited
